The nature of series [1]: Binding in plasma from human, equilibrium dialysis. In kind it is in vitro ADME. The conditions noted are these: for fraction unbound at 6 h, 5 µM: human, plasma, read-out: human fu,plasma. In general terms: Equilibrium dialysis compares concentrations on both sides of a semipermeable membrane.
The nature of series [2]: Binding in brain homogenate from rat, equilibrium dialysis. In kind it is in vitro ADME. The conditions noted are these: rat, brain homogenate, rat brain homogenates, read-out: rat fu,brain.
In another series the target is T1, human M2 (hM2) (Homo sapiens, UniProt P08172).
T1 construct: expressed in transfected cells
T1 sequence (P08172 1-466): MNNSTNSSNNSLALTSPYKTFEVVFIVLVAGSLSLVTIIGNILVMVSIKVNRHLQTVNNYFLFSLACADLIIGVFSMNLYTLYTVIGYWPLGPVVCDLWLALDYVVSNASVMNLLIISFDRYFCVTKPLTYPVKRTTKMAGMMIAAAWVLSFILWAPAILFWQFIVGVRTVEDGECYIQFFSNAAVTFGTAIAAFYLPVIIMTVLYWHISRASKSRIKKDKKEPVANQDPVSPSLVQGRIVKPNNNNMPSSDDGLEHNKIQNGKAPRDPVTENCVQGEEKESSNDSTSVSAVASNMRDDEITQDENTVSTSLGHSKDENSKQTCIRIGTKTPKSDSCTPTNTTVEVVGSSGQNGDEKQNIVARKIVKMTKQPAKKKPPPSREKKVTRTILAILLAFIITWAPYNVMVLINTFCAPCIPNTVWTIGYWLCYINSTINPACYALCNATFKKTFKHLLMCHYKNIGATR
In words: Calcium mobilization assay, hM2/Gqi5-CHO cells, with EC20 acetylcholine. In kind it is cell-based. The text has this:
buffer remained in the cell plates. […] After establishment of a […]
For orientation: Calcium flux is commonly read through the fluorescence of an indicator in the cells.

The target in series [3] is T2, CYP 1A2 (Homo sapiens, UniProt P05177).
T2 sequence (P05177 1-516): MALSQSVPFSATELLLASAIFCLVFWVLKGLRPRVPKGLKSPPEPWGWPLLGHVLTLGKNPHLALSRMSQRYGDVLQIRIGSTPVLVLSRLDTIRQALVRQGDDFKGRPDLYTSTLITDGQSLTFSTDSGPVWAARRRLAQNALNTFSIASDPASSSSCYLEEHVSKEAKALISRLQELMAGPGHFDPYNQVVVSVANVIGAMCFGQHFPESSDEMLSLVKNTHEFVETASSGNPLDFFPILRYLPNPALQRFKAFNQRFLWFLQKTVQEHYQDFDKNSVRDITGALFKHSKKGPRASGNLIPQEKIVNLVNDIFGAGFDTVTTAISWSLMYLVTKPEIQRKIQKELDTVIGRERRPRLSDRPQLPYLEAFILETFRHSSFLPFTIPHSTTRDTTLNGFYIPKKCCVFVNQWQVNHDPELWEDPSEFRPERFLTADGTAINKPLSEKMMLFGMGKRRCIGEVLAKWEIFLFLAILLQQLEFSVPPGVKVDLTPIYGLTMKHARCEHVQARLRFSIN
In words: CYP450 inhibition in pooled human liver microsomes, CYP-specific probe substrates. In kind it is in vitro ADME. The conditions noted are these: for IC50: pooled HLM, NADPH, CYP-specific probe substrate.

A further series has as its target CYP 3A4 (Homo sapiens, UniProt P08684). Described as above. In kind it is in vitro ADME. As to conditions: pooled HLM, NADPH, CYP-specific probe substrate.
The nature of series [4]: Binding in plasma from rat, equilibrium dialysis. In kind it is in vitro ADME. The conditions noted are these: read-out: rat fu,plasma.
Series [5] has as its target T3, CYP 2C9 (Homo sapiens, UniProt P11712). Nature of the series: CYP450 inhibition in pooled human liver microsomes, CYP-specific probe substrates. In kind it is in vitro ADME. The conditions noted are these: pooled HLM, NADPH, CYP-specific probe substrate. On the technique in general: Liver microsomes are a subcellular fraction often used to study metabolism.
The nature of series [6]: Intrinsic clearance in rat liver microsomes (substrate depletion), predicted hepatic clearance. In kind it is in vitro ADME. The conditions noted are these: for CLint scaled at 1 µM: pH 7.4, rat liver microsomes; for CLhep, rat (predicted hepatic clearance): predicted from rat microsomal CLint.
A short description of series [7]: Intrinsic clearance in human liver microsomes (substrate depletion), predicted hepatic clearance. In kind it is in vitro ADME. As to conditions: for CLint scaled at 1 µM: pH 7.4, human liver microsomes; for CLhep, human (predicted hepatic clearance): predicted from human microsomal CLint.
Series [8] has as its target T4, CYP 2D6 (Homo sapiens, UniProt P10635). In words: CYP450 inhibition in pooled human liver microsomes, CYP-specific probe substrates. In kind it is in vitro ADME. As to conditions: pooled HLM, NADPH, CYP-specific probe substrate.
For the next series, the target named is T5, human M4 (hM4) (Homo sapiens, UniProt P08173).
T5 sequence (P08173 1-479): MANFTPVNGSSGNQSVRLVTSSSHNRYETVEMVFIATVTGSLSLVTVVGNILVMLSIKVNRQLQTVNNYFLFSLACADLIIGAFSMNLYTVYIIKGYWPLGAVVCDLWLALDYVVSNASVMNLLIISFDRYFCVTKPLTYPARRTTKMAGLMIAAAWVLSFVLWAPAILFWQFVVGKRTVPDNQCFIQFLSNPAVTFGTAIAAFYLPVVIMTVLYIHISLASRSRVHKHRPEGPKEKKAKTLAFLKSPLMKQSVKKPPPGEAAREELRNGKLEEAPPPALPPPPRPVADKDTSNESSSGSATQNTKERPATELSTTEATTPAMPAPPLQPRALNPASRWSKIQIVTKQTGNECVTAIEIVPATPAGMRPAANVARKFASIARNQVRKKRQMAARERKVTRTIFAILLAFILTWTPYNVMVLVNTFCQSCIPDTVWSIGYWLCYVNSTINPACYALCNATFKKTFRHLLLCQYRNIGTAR
In words: Calcium mobilization assay, hM4/Gqi5-CHO cells, with EC20 acetylcholine (PAM). As to conditions: hM4/Gqi5-CHO cells, calcium mobilization; for hM4 pEC50 / hM4 %ACh Max: EC20 acetylcholine; for hM4 %ACh Max: maximum response; for EC50: read-out: hM4 EC50, EC20 fixed concentration of acetylcholine.

Details of series [9]: method as in PMID 18772318, PMID 24442096, PMID 34710625. The conditions noted are these: rat brain; Figure 1, earlier M4 PAMs; cited from earlier work.
Details of series [10]: method as in PMID 18772318, PMID 24442096, PMID 34710625. As to conditions: human; Figure 1, earlier M4 PAMs; cited from earlier work.
On the set-up of series [11]: method as in PMID 18772318, PMID 24442096, PMID 34710625. As to conditions: Figure 1, earlier M4 PAMs; cited from earlier work.
On the set-up of series [12]: method as in PMID 18772318, PMID 24442096, PMID 34710625. The conditions noted are these: rat; Figure 1, earlier M4 PAMs; cited from earlier work.
Series [13] has as its target T3, CYP 2C9. Also on record: method as in PMID 23177787. As to conditions: Figure 1; read-out: Cyp P450 Inhibition (2C9); cited from earlier work.
Series [14] has as its target T2, CYP 1A2. Also noted: method as in PMID 23177787. The conditions noted are these: Figure 1; read-out: Cyp P450 Inhibition (1A2); cited from earlier work.
The target in series [15] is T4, CYP 2D6. Also noted: method as in PMID 23177787. The conditions noted are these: Figure 1; read-out: Cyp P450 Inhibition (2D6); cited from earlier work.

Read-outs that look alike come from different tables or passages of the source.

Sequence of CYP 3A4 (P08684 whole entry): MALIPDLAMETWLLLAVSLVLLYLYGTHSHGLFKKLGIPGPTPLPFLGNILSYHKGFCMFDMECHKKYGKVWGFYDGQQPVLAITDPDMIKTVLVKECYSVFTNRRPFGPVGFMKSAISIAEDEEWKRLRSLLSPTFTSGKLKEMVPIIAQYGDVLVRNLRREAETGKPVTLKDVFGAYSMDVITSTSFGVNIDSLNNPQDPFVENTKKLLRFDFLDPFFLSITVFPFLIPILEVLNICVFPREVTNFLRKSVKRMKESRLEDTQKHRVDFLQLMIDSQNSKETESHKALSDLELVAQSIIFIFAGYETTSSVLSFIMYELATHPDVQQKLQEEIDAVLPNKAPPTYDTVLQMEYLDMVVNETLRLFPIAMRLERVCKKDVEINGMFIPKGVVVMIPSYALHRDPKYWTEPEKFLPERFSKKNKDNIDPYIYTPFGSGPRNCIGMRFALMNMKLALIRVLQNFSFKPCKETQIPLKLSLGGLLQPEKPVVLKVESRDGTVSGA
T4 sequence (P10635 whole entry): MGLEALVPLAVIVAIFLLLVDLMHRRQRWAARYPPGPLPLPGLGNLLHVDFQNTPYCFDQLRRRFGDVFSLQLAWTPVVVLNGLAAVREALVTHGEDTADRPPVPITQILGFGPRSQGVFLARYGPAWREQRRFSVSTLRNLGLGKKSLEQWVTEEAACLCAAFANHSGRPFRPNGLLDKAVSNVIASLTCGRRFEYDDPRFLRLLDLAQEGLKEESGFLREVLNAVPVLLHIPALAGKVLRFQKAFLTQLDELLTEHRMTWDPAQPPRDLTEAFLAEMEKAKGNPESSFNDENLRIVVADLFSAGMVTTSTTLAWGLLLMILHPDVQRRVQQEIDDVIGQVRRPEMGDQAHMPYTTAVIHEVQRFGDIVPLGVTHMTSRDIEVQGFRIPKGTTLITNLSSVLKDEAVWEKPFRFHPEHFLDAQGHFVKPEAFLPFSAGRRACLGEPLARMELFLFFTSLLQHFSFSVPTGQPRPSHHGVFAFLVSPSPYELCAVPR
T3 sequence (P11712 whole entry): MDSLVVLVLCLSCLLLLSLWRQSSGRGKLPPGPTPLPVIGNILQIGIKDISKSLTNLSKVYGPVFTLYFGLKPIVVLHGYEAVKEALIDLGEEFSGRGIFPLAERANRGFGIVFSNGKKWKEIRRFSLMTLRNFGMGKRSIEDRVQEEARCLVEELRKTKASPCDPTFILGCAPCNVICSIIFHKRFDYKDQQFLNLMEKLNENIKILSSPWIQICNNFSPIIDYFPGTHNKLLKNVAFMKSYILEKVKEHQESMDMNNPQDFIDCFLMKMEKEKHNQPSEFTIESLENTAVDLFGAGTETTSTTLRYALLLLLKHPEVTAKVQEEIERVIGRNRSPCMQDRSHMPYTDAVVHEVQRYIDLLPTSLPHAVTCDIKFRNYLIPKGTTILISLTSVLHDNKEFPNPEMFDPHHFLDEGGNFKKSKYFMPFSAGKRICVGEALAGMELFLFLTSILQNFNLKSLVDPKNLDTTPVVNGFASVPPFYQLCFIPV

In the case of `Cc1c(Cl)cnc2sc3c(N4CC(C#N)C4)ncnc3c12` [Compound 15f], the fraction unbound at 6 h, 5 µM in series [1] worked out at 0.02; in series [4], 0.171. In series [2], the fraction unbound at 6 h, 1 µM is 0.002. Moreover, the “hM2 EC50” value at human M2 (hM2) was “inactive”. Also, the IC50 against CYP 1A2 [3] is 360 nM; on CYP 3A4, more than 30 µM; against CYP 2C9 [5], more than 30 µM; at CYP 2D6 [8], more than 30 µM. Also, the “fold improvement of CYP 1A2 inhibition compared with ML253” value at CYP 1A2 [3] (vs ML253) is given as 3 fold. In addition, the CLint scaled (as a rule, the capacity of the preparation to metabolise the compound, expressed as a volume cleared per time) at 1 µM in series [6] was 642 mL/min/kg; in series [7], 224 mL/min/kg. For the same molecule, the “CLhep, rat (predicted hepatic clearance)” value in series [6] is 63 mL/min/kg. The “CLhep, human (predicted hepatic clearance)” value in series [7] is listed as 19 mL/min/kg.
For the molecule `Cc1c(Cl)cnc2sc3c(N4CC5(COC5)C4)ncnc3c12` [Compound 15h], the fraction unbound at 6 h, 5 µM in series [1] stood at 0.008; in series [4] it was 0.031. Besides, in [2], the fraction unbound at 6 h, 1 µM is 0.003. Besides, the “hM2 EC50” value at human M2 (hM2) is “inactive”. In addition, the IC50 is 640 nM at CYP 1A2 [3], more than 30 µM at CYP 3A4, more than 30 µM against CYP 2C9 [5] and more than 30 µM on CYP 2D6 [8]. Moreover, the CLint scaled at 1 µM in series [6] is 334 mL/min/kg; in [7], 147 mL/min/kg. Also, the “CLhep, rat (predicted hepatic clearance)” value in series [6] is recorded as 58 mL/min/kg. In series [7], the “CLhep, human (predicted hepatic clearance)” value is given as 18 mL/min/kg.
Consider `Cc1nc2sc3c(NC4CC4)nncc3c2c(C)c1Cl.Cl` [Compound 22i], for which the fraction unbound at 6 h, 5 µM in series [1] is 0.013; in series [4], 0.042. Further, in [2], the fraction unbound at 6 h, 1 µM worked out at 0.011. Besides, at human M2 (hM2), the “hM2 EC50” value is “inactive”. Also, the IC50 is less than 100 nM on CYP 1A2 [3], 28.8 µM on CYP 3A4, 19.2 µM against CYP 2C9 [5] and 7.9 µM at CYP 2D6 [8]. Moreover, the CLint scaled at 1 µM is 420 mL/min/kg in series [6] and 52 mL/min/kg in series [7]. For the same molecule, the “CLhep, rat (predicted hepatic clearance)” value in series [6] is 60 mL/min/kg. The “hM4 pEC50” value on human M4 (hM4) turned out to be 7.19. At human M4 (hM4), the “hM4 %ACh Max” value was found to be 88%. Further, the EC50 – broadly, the midpoint of the concentration-response curve – on human M4 (hM4) was determined as 65 nM. Moreover, in [7], the “CLhep, human (predicted hepatic clearance)” value is 15 mL/min/kg.
Regarding `Cc1cc(C)c2c(n1)sc1c(N3CC4(COC4)C3)ncnc12` [VU6007215], in [9], the “fu,b (r)” value is recorded as 0.019. For the same molecule, the “fu,plasma (h)” value in series [10] was 0.056. Besides, the “rat CLhep” value in series [11] is 63 mL/min/kg. In series [12], the “fu,plasma (r)” value was 0.206.
On to `Cc1nc2sc(C(=O)NCc3ccncc3)c(N)c2c(C)c1Cl` [ML253], for which the values for the IC50 on CYP 2C9 [13], on CYP 1A2 [14] and at CYP 2D6 [15] were less than 100 nM, 120 nM and 700 nM, respectively.
Consider `COc1ccc(CNC(=O)c2sc3nc(C)cc(C)c3c2N)cc1` [VU0152100], for which the “fu,b (r)” value in series [9] was 0.045. In addition, the “rat CLhep” value in series [11] is 65 mL/min/kg. Further, in [12], the “fu,plasma (r)” value is 0.011.
In the case of `Cc1nc2oc3c(NC4CC4)ncnc3c2c(C)c1Cl.Cl` [Compound 14o], the “human fu,plasma” value in series [1] (fraction unbound) came out at 0.007. Besides, the results for the fraction unbound at 6 h, 5 µM in series [1] and in series [4] were less than 0.01 and 0.06, respectively. In series [2], the fraction unbound at 6 h, 1 µM amounted to 0.017. In addition, the “hM2 EC50” value on human M2 (hM2) is “inactive”. Further, the IC50 against CYP 1A2 [3] was less than 100 nM; against CYP 3A4, not below 30 µM; on CYP 2C9 [5] it was not below 30 µM; against CYP 2D6 [8] it was not below 30 µM. Also, the figures for the CLint scaled at 1 µM in [6] and in series [7] were 175 mL/min/kg and 37 mL/min/kg, respectively. Further, the “CLhep, rat (predicted hepatic clearance)” value in series [6] is given as 50 mL/min/kg. For the same molecule, in series [7], the “CLhep, human (predicted hepatic clearance)” value is listed as 13 mL/min/kg.
With `Cc1c(Cl)cnc2sc3c(NC4CC4)ncnc3c12` [Compound 15g], the fraction unbound at 6 h, 5 µM in [1] was 0.01; in [4], 0.039. Also, in series [2], the fraction unbound at 6 h, 1 µM came out at 0.003. Besides, the EC50 worked out at 480 nM at human M2 (hM2) and 25 nM on human M4 (hM4). In addition, the “hM2 % ACh Max” value on human M2 (hM2) is recorded as 40%. In addition, the IC50 at CYP 1A2 [3] was less than 100 nM; against CYP 3A4, 24.3 µM; against CYP 2C9 [5], more than 30 µM; on CYP 2D6 [8] it was more than 30 µM. Also, the CLint scaled at 1 µM in [6] was 789 mL/min/kg; in [7], 57 mL/min/kg. In addition, the “CLhep, rat (predicted hepatic clearance)” value in series [6] is on record as 64 mL/min/kg. Moreover, on human M4 (hM4), the “hM4 pEC50” value amounted to 7.60. The “hM4 %ACh Max” value on human M4 (hM4) worked out at 110%. The “CLhep, human (predicted hepatic clearance)” value in series [7] is 15 mL/min/kg.

These data come from paper PMC11318023, “Discovery of VU6008677: A Structurally Distinct Tricyclic M4 Positive Allosteric Modulator with Improved CYP450 Profile” (ACS Medicinal Chemistry Letters, 2024).
